Consider 20 molecules from ChEMBL document CHEMBL3046845, “A facile synthesis of novel optically active R,R-2-(4-(2-(4-(5-chloro-3-halo-pyridin-2-yloxy)-phenoxy)-propionyloxy)-phenoxy)-propionic acid esters using cyanuric chloride as potential herbicide” (Chin Chem Lett, 2011).

One data set deals with Avena fatua. The data set is described as follows: Herbicidal activity against Avena fatua assessed as growth inhibition at 125 g/ha after 3 weeks relative to control. The format is functional. As to conditions: 504 h, read-out: GI.
Another data set relates to Alopecurus myosuroides. The data set is described as follows: Herbicidal activity against Alopecurus myosuroides assessed as growth inhibition at 125 g/ha after 3 weeks relative to control. Particulars: 504 h, read-out: GI. The format is functional.
The test system of the next data set is Echinochloa crus-galli. The data set is described as follows: Herbicidal activity against Echinochloa crus-galli (barnyard grass) assessed as growth inhibition at 125 g/ha after 3 weeks relative to control. Format: functional. Particulars: 504 h, read-out: GI.
The nature of data set [1]: Phytotoxicity against Triticum aestivum (wheat) assessed as growth inhibition at 125 g/ha after 3 weeks relative to control. Format: organism-based. As to conditions: in vivo, read-out: GI.
Data set [2] can be described thus: Phytoxicity against Hordeum vulgare (barley) assessed as growth inhibition at 125 g/ha after 3 weeks relative to control. The format is organism-based. Particulars: in vivo, read-out: GI.

On to `COC(=O)[C@@H](C)Oc1ccc(OC(=O)[C@@H](C)Oc2ccc(Oc3ncc(Cl)cc3Cl)cc2)cc1`, for which the figures for the inhibition of growth at 125 g/ha in the data set on Avena fatua, in the data set on Alopecurus myosuroides and in the data set with Echinochloa crus-galli were 43%, 42% and 44%, respectively. For the same molecule, the inhibition at 504 h in data set [1] was 0%; in data set [2], 15%.

Turning to `CCOC(=O)[C@@H](C)Oc1ccc(Oc2ncc(Cl)cc2F)cc1`, the figures for the inhibition of growth at 125 g/ha with Avena fatua, in the data set with Alopecurus myosuroides and in the data set with Echinochloa crus-galli were 90%, 82% and 75%, respectively. The inhibition at 504 h is 5% in data set [1] and 27% in data set [2].

As to `CCCOC(=O)[C@@H](C)Oc1ccc(OC(=O)[C@@H](C)Oc2ccc(Oc3ncc(Cl)cc3Cl)cc2)cc1`, the inhibition of growth at 125 g/ha in the data set on Avena fatua amounted to 50%; in the data set on Alopecurus myosuroides, 36%; with Echinochloa crus-galli, 45%. The inhibition at 504 h in data set [1] came out at 0%; in data set [2], 10%.

As for `C#CCOC(=O)[C@@H](C)Oc1ccc(OC(=O)[C@@H](C)Oc2ccc(Oc3ncc(Cl)cc3F)cc2)cc1`, the inhibition of growth at 125 g/ha with Avena fatua amounted to 100%; in the data set with Alopecurus myosuroides, 100%; with Echinochloa crus-galli, 92%. The inhibition at 504 h in data set [1] and in data set [2] was 0% in each case.

For the molecule `C#CCOC(=O)[C@@H](C)Oc1ccc(Oc2ncc(Cl)cc2F)cc1` [CLODINAFOP PROPARGYL], the inhibition of growth at 125 g/ha in the data set on Avena fatua turned out to be 95%; in the data set with Alopecurus myosuroides, 88%; with Echinochloa crus-galli, 82%. In addition, the inhibition at 504 h in data set [1] is 0%; in data set [2] it was 20%.

As for `CC(C)OC(=O)[C@@H](C)Oc1ccc(Oc2ncc(Cl)cc2F)cc1`, the values for the inhibition of growth at 125 g/ha in the data set with Avena fatua, in the data set on Alopecurus myosuroides and in the data set with Echinochloa crus-galli were 81%, 73% and 57%, respectively. In addition, the inhibition at 504 h in data set [1] is 10%; in data set [2], 30%.

As for `CCOC(=O)[C@@H](C)Oc1ccc(OC(=O)[C@@H](C)Oc2ccc(Oc3ncc(Cl)cc3F)cc2)cc1`, the inhibition of growth at 125 g/ha in the data set with Avena fatua was determined as 93%; in the data set on Alopecurus myosuroides it was 90%; with Echinochloa crus-galli it was 80%. In addition, the results for the inhibition at 504 h in data set [1] and in data set [2] were 0% and 10%, respectively.

For the molecule `CCOC(=O)[C@@H](C)Oc1ccc(Oc2ncc(Cl)cc2Cl)cc1`, the results for the inhibition of growth at 125 g/ha with Avena fatua, in the data set on Alopecurus myosuroides and in the data set with Echinochloa crus-galli were 50%, 45% and 51%, respectively. Besides, the inhibition at 504 h was 10% in data set [1] and 25% in data set [2].

Consider `CCCCOC(=O)[C@@H](C)Oc1ccc(Oc2ncc(Cl)cc2F)cc1`, for which the inhibition of growth at 125 g/ha with Avena fatua is 62%; with Alopecurus myosuroides, 54%; in the data set on Echinochloa crus-galli, 55%. Moreover, the inhibition at 504 h was determined as 15% in data set [1] and 25% in data set [2].

On to `COC(=O)[C@@H](C)Oc1ccc(OC(=O)[C@@H](C)Oc2ccc(Oc3ncc(Cl)cc3F)cc2)cc1`, for which the inhibition of growth at 125 g/ha with Avena fatua was found to be 90%; in the data set with Alopecurus myosuroides, 80%; in the data set on Echinochloa crus-galli it was 80%. In addition, the inhibition at 504 h is 0% in data set [1] and 10% in data set [2].

Take `CCOC(=O)[C@@H](C)Oc1ccc(OC(=O)[C@@H](C)Oc2ccc(Oc3ncc(Cl)cc3Cl)cc2)cc1`: the inhibition of growth at 125 g/ha was 54% in the data set with Avena fatua, 52% with Alopecurus myosuroides and 54% in the data set with Echinochloa crus-galli. Also, the inhibition at 504 h in data set [1] was 0%; in data set [2] it was 15%.

With `C#CCOC(=O)[C@@H](C)Oc1ccc(Oc2ncc(Cl)cc2Cl)cc1`, the inhibition of growth at 125 g/ha in the data set on Avena fatua was 47%; with Alopecurus myosuroides it was 57%; with Echinochloa crus-galli, 45%. Further, the inhibition at 504 h in data set [1] was 0%; in data set [2] it was 20%.

`CCCOC(=O)[C@@H](C)Oc1ccc(Oc2ncc(Cl)cc2F)cc1`: the inhibition of growth at 125 g/ha is 84% in the data set on Avena fatua, 76% in the data set on Alopecurus myosuroides and 62% in the data set with Echinochloa crus-galli. Further, the inhibition at 504 h in data set [1] worked out at 10%; in data set [2] it was 35%.

Take `CCCOC(=O)[C@@H](C)Oc1ccc(Oc2ncc(Cl)cc2Cl)cc1`: the figures for the inhibition of growth at 125 g/ha with Avena fatua, with Alopecurus myosuroides and in the data set on Echinochloa crus-galli were 45%, 35% and 40%, respectively. Moreover, the figures for the inhibition at 504 h in data set [1] and in data set [2] were 15% and 18%, respectively.

As to `CC(C)OC(=O)[C@@H](C)Oc1ccc(OC(=O)[C@@H](C)Oc2ccc(Oc3ncc(Cl)cc3F)cc2)cc1`, the inhibition of growth at 125 g/ha in the data set with Avena fatua amounted to 85%; in the data set with Alopecurus myosuroides, 78%; in the data set on Echinochloa crus-galli, 65%. The inhibition at 504 h in data set [1] was 0%; in data set [2], 12%.

Consider `CCCOC(=O)[C@@H](C)Oc1ccc(OC(=O)[C@@H](C)Oc2ccc(Oc3ncc(Cl)cc3F)cc2)cc1`, for which the inhibition of growth at 125 g/ha came out at 89% in the data set on Avena fatua, 79% with Alopecurus myosuroides and 70% in the data set on Echinochloa crus-galli. In addition, the inhibition at 504 h was 0% in data set [1] and 15% in data set [2].

Turning to `C#CCOC(=O)[C@@H](C)Oc1ccc(OC(=O)[C@@H](C)Oc2ccc(Oc3ncc(Cl)cc3Cl)cc2)cc1`, the inhibition of growth at 125 g/ha in the data set on Avena fatua came to 50%; in the data set with Alopecurus myosuroides, 60%; in the data set with Echinochloa crus-galli it was 53%. Besides, the figures for the inhibition at 504 h in data set [1] and in data set [2] were 0% and 5%, respectively.

Regarding `COC(=O)[C@@H](C)Oc1ccc(Oc2ncc(Cl)cc2F)cc1`, the inhibition of growth at 125 g/ha in the data set on Avena fatua was found to be 90%; in the data set on Alopecurus myosuroides, 75%; in the data set with Echinochloa crus-galli it was 80%. For the same molecule, the inhibition at 504 h in data set [1] was found to be 10%; in data set [2], 35%.

Regarding `COC(=O)[C@@H](C)Oc1ccc(Oc2ncc(Cl)cc2Cl)cc1`, the results for the inhibition of growth at 125 g/ha with Avena fatua, in the data set with Alopecurus myosuroides and in the data set with Echinochloa crus-galli were 30%, 30% and 40%, respectively. Besides, the figures for the inhibition at 504 h in data set [1] and in data set [2] were 10% and 30%, respectively.

Consider `CCCCOC(=O)[C@@H](C)Oc1ccc(OC(=O)[C@@H](C)Oc2ccc(Oc3ncc(Cl)cc3F)cc2)cc1`, for which the inhibition of growth at 125 g/ha in the data set with Avena fatua came to 63%; with Alopecurus myosuroides, 62%; with Echinochloa crus-galli, 54%. The inhibition at 504 h in data set [1] was determined as 5%; in data set [2], 10%.
